These results are taken from the CATMoS acute toxicity set (Mansouri et al. 2021).

This series in a line: GHS categories as the set defines them, by LD50: 1 up to 5, 2 up to 50, 3 up to 300, 4 up to 2000, 5 above 2000 mg/kg. The conditions noted are these: rat; in vivo; po. The source says: […]The data set underlying the modeling effort for this project was initially compiled by NICEATM and U.S. EPA’s CCTE. Briefly, LD50 data were collected from rat acute oral systemic toxicity tests, including limit tests, ranges/confidence intervals, and discrete LD50 values. The full data set included 21,200 LD50 entries for 15,688 substances. […] Data were reviewed to ensure that LD50 values with obvious errors in the extracted data such as unit conversion errors (e.g., comma and decimal separator misplacements) were either fixed or removed. After this review, 16,209 LD50 values remained. Many of the chemicals represented had multiple LD50 entries, requiring that a single representative value per Chemical Abstracts Service Registry Number (CASRN) identifier be defined to facilitate modeling efforts. Based on ATWG feedback and to define the representative LD50 as a protective value while accounting for the distribution across multiple LD50s, the median of the lowest quartile was computed using only discrete LD50 values (omitting limit test data and range and confidence interval data). A detailed summary of the data compilation is available online on the NICEATM webpage dedicated to the collaborative modeling project (NTP 2020).
[…][…] For categorical designations, limit test and range/confidence interval LD50 data were integrated wherever possible. As such, the number of chemicals with end point values/calls varies across the modeling end points (Table 3) based on whether chemicals had representative LD50 values and/or other data. If a chemical had both, the representative value was used to determine categorical calls rather than limit test data. Some data were useable only for certain end points and categories depending on the thresholds. For example, ranges that spanned multiple hazard categories were considered only for the binary (very toxic/nontoxic) end points and omitted from rendering a determination for hazard category assignment.
[…]The final data set comprising 11,992 chemicals was split into training and evaluation sets […], respectively. This process was performed semirandomly by ordering chemicals based on the five end points (categorical and continuous LD50 values) and partitioning every fourth record into the evaluation set accordingly. This approach was taken to ensure an equivalent distribution of the LD50 values and the different hazard categories between the training and the evaluation sets without supervised sampling of the chemicals based on structures (Figure 1A). The sources of the chemical structures were also kept equivalent between the two sets, with chemical structures obtained from DSSTox, being the highest quality, representing over 75% of each set (Figure 1B).

Regarding `C[C@H]1O[C@]2(CS1)CN1CCC2CC1`, the GHS category is recorded as 3.
The result for `CCC(C)=NO[Si](ON=C(C)CC)(ON=C(C)CC)c1ccccc1` reads 5; that for `O=C(O)C(=O)C(O)C(O)C(O)CO` (centres undefined), 5.
Under `O=C(O)CCn1nc2ccccn2c1=O` stands 5; under `C=C(C=CCC(O)C(O)C(O)CC=CC=CC(O)CC1OC(CC(O)C(O)CC2OC(C(O)C(O)CCC(O)C=CC(C)C(O)CC3(O)OC(CC(O)CCCCCCCC45CC(C)CC(C)(O4)C(CC(C)CCCCCC(O)C(O)C(O)C(O)C(O)C4OC(CC(O)C(O)C(C)=CC(O)CC(C)C(O)C(=O)NC=CC(=O)NCCCO)C(O)C(O)C4O)O5)C(O)C(O)C3O)CC(O)C2O)C(O)C(O)C1O)CCC(O)C(O)C(O)C(C)CC1OC(C=CC(O)C(O)CC2CC3CC(O2)C(CCC2OC(CN)CC2O)O3)C(O)C(O)C1O` (centres undefined), 1; under `CNC(=O)c1cc(Cl)cc(C)c1NC(=O)c1cc(Br)nn1-c1ncccc1Cl`, 5.
The result for `CC(=O)CCC=C(C)CC/C=C(\C)CC/C=C(\C)CCC=C(C)C` reads 5.
For `Cn1cc(C(=O)Cl)c(C(F)F)n1`, the GHS category is 5.
The result for `COc1cc2nc(N3CCCC(N(C)Cc4ccc5c(c4)OCO5)C3)nc(N)c2cc1OC` (centres undefined) reads 4.
Under `CCC(Oc1ccc(F)c(C(F)(F)F)c1)C(O)=NCc1ccccc1` (centres undefined) stands 5; under `CC(C)CCCCCC(=O)NCCCCCC(=O)O`, 5; under `O=C1c2c(Br)c(Br)c(Br)c(Br)c2C(=O)N1CCN1C(=O)c2c(Br)c(Br)c(Br)c(Br)c2C1=O`, 5.
Under `Cc1ccc(C(=O)c2cc(O)c(O)c([N+](=O)[O-])c2)cc1` stands 5.
`CC1(C(=O)Nc2ccc(O)c(Cl)c2Cl)CCCCC1` gave a GHS category of 5.
Under `C#CCOc1cc(-n2nc(C(C)(C)C)oc2=O)c(Cl)cc1Cl` stands 5; under `CC(=O)N1CCSC1C(=O)Oc1c(C)ncc(CO)c1CO` (centres undefined), 5.
Under `Cc1c(CC(=O)O)c2c(n1CC(C)C)CC(C)(C)CC2=O` stands 5.
Under `COc1ccccc1-c1nc(C)c(C(N)=O)s1` stands 5; under `CC(=O)c1ccc(S(=O)(=O)NC(=O)NC2CCCCC2)cc1`, 5.
`CCCCCCCCCCCCCC(=O)Nc1ccc(Cc2ccccn2)c([N+](=O)[O-])c1`: the GHS category came to 3.
In the case of `CCCCC(CC)CNc1ccc2ccccc2c1N=Nc1ccc(N=Nc2ccccc2C)cc1C` (centres undefined), the GHS category is recorded as 5.
Under `CC(=O)O[C@@H]1[C@H](OC(C)=O)[C@@H](C)O[C@H]1n1cc(F)c(N)nc1=O` stands 5; under `Cc1ccccc1N1C(=O)c2cc(S(N)(=O)=O)c(Cl)cc2NC1C` (centres undefined), 5.
The result for `CCCCCCCCC=CCCCCCCCCCCCC(=O)NCCCN(C)C` reads 5; that for `CCCCC(CC)COCOCC(CC)CCCC` (centres undefined), 5.
As to `CCOC(=O)COc1ccc2c(=O)cc(-c3ccccc3)oc2c1`, the GHS category is 5.
The result for `CC(=O)O[C@]1(C(C)=O)CC[C@H]2[C@@H]3C=C(Cl)C4=CC(=O)[C@@H]5C[C@@H]5[C@]4(C)[C@H]3CC[C@@]21C` reads 5.
The result for `O=C(O)NN1C(CCCOc2ccc(F)cc2)C[C@H](O)[C@@H]2CCCC[C@H]21` (some centres undefined) reads 5.
The result for `CSC(C)=NOC(=O)N(C)SN(C)C(=O)Oc1ccccc1OC(=O)N(C)SN(C)C(=O)ON=C(C)SC` reads 4.
For the compound `CCCCC(=O)N(Cc1ccc(-c2ccccc2-c2nn[nH]n2)cc1)[C@H](C(=O)OCc1ccccc1)C(C)C`, the GHS category stood at 4.
Under `COc1ccc(C=CC(C)=O)cc1` stands 5.
The result for `C=CC(C)(CCC=C(C)C)OC(=O)Cc1ccccc1` (centres undefined) reads 5.
Under `C[C@@H]1CN(c2c(F)c(N)c3c(=O)c(C(=O)O)cn(C4CC4)c3c2F)C[C@H](C)N1` (racemic) stands 5.
For the compound `COC(=O)C(C)(C)c1ccc(Br)cc1`, the GHS category came to 5.
Turning to `CN1C(=O)CCC1=O`, the GHS category is 5.
Under `CCN(CC)CCNC(C(=O)OCCC(C)C)c1ccccc1` (centres undefined) stands 4.
Under `c1ccc2oc(C3(Cn4cncn4)OCCCO3)cc2c1` stands 4; under `CC/C=C\CCOC(=O)CC`, 5.
The compound `CCN1CCN(C(=O)N[C@@H](C(=O)N[C@@H]2C(=O)N3[C@@H]2SC(C)(C)[C@H]3C(=O)O)c2ccccc2)C(=O)C1=O` gave a GHS category of 5.
The result for `CC(C)c1cc(C(C)C)c(N=C=O)c(C(C)C)c1N=C=O` reads 5.
`CCCCCCC(=O)OCC` yielded a GHS category of 5.
Under `CC1=C(NC(=O)O)/C(=N/C(=O)CN)C=CC1(NC(=O)O)c1cccc(C2=CC=C/C(=N\C(=O)CN)C2C)c1` (centres undefined) stands 5.
The result for `COc1cc(S(=O)(=O)O)c(C)cc1/N=N/c1c(O)ccc2cc(S(=O)(=O)O)ccc12` reads 5.
Under `CC(CC(C)(C)C)CC(C)(C)C` stands 5; under `CC1(C)[C@@H](O[C@H]2O[C@H](C(=O)O)[C@@H](O)[C@H](O)[C@H]2O[C@@H]2O[C@H](C(=O)O)[C@@H](O)[C@H](O)[C@H]2O)CC[C@]2(C)[C@H]3C(=O)C=C4[C@@H]5C[C@@](C)(C(=O)O)CC[C@]5(C)CC[C@@]4(C)[C@]3(C)CC[C@@H]12`, 5.
In turn, `CN1CC(c2ccn[nH]2)CC2c3cccc4[nH]cc(c34)CC21` (centres undefined) returned a GHS category of 4.
The result for `CC/C=C/C=C\CCCCCCCCOC(C)=O` reads 4; that for `Nc1ccc([N+](=O)[O-])cc1O`, 5.
The result for `CC(CO)COC1CC2CCC1(C)C2(C)C` (centres undefined) reads 5.
The result for `COc1c(O)cc2c(c1O)C1OC(CO)C(O)C(O)C1OC2=O` (centres undefined) reads 5; that for `FC(F)(Cl)C(Cl)(Cl)Cl`, 5; that for `CCCS(=O)(=O)Nc1ccc(F)c(C(=O)c2c[nH]c3ncc(Br)cc23)c1F`, 5.
For `CC(C)CC(=O)OCc1ccccc1`, the GHS category was 5.
The compound `O=C(c1ccccc1)C1CCCCC1` had a GHS category of 5.
`Cc1ccc(C(C)C)cc1OC(=O)c1ccccc1Nc1cccc(C)c1C` came in with a GHS category of 5.
The result for `CCCCCCCCCCCCCCCCOP(=O)(O)O` reads 5.
Under `COc1nc2cc(Cl)ccc2o1` stands 4.
The result for `Clc1ccc2oc(C3(Cn4ccnc4)OCCO3)cc2c1` reads 4; that for `C[C@H]1CO[C@@](Cn2ccnc2)(c2cc3cc(Cl)cc(Cl)c3o2)O1`, 4; that for `C/C=C(\C)C(=O)OCC`, 5.
The compound `CCCC(=O)O[C@]1(C(=O)CCl)[C@@H](C)C[C@H]2[C@@H]3CCC4=CC(=O)C=C[C@]4(C)[C@@]3(F)C(=O)C[C@@]21C` displayed a GHS category of 5.
The result for `CC(C)OP(O)(=S)OC(C)C` reads 4; that for `O=c1[nH]n(-c2cccc(C(F)(F)F)c2)c2ncccc12`, 4.
Compound `O=C1NC(=O)C(c2ccc(O)cc2)N1` (centres undefined) gave a GHS category of 5.
The compound `CCC(c1ccc(O)cc1)C(C#N)c1ccc(O)cc1` (centres undefined) registered a GHS category of 5.
For the compound `CCOC(=O)CSc1nc(C(C)(C)C)nn1C(=O)N(C)C`, the GHS category is reported as 3.
On to `CCC(c1cccc(O)c1)C(CC)c1cccc(O)c1` (centres undefined), for which the GHS category is 5.
In turn, `CCCCCCCCCCCCOCCOCCOCCOCCOCCOCCOCCOCCOCCOCCOCCOCCOCCOCCOCCOCCOCCOCCOCCOCCOCCOCCOCCO` returned a GHS category of 5.
Under `CCCc1ccc(OCC(=O)N2CCN(C(=O)COc3ccc(CCC)cc3OC)CC2)c(OC)c1` stands 4; under `Brc1c(Br)c(Br)c(CCc2c(Br)c(Br)c(Br)c(Br)c2Br)c(Br)c1Br`, 5; under `C=CC(=O)OCC[N+](C)(C)Cc1ccccc1`, 5.
Turning to `CC[n+]1c(C=Cc2ccc(N3CCCC3)cc2)cccc1C=Cc1ccc(N2CCCC2)cc1`, the GHS category came to 5.
Under `COCC(=O)O[C@]1(CCN(C)CCCc2nc3ccccc3[nH]2)CCc2cc(F)ccc2[C@@H]1C(C)C` stands 4.
Under `CNc1ccc(C(=O)c2cccs2)cc1O` stands 5.
Under `CCN(CCOC(C)=O)c1ccc(N=Nc2nc3ccc(Cl)cc3s2)cc1` stands 5; under `Cc1cc(O)c2c(O)c(-c3ccc4cc(C)cc(O)c4c3O)ccc2c1`, 5.
As for `CC(=O)Nc1ccc(S(=O)(=O)O)c2cc(S(=O)(=O)O)c(/N=N/c3ccc(/N=N/c4ccc(S(=O)(=O)O)cc4)c4ccc(S(=O)(=O)O)cc34)c(O)c12`, the GHS category is 5.
Compound `CC(C)Oc1cccc(NC(=O)c2ccccc2C(F)(F)F)c1` returned a GHS category of 5.
The result for `O=C1c2ccccc2C(=O)N1CCO` reads 5.
